Test [1] deals with T1, 17-beta-hydroxysteroid dehydrogenase type 1 (Homo sapiens) (UniProt P14061).
T1 sequence (whole entry): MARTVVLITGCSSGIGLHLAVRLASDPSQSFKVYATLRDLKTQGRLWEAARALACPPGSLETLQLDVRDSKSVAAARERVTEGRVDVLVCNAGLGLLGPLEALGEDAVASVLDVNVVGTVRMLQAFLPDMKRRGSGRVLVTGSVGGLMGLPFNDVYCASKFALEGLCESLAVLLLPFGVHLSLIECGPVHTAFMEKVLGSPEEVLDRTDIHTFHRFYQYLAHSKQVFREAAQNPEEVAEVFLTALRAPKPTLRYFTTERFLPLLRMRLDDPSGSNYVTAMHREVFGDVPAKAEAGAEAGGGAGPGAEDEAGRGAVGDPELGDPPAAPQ
Nature of the test: Inhibition of human recombinant 17-beta-HSD1 expressed in human HeLa cells using estrone as substrate preincubated for 30 mins prior substrate addition measured after 120 mins by spectrophotometry. Type of test: cell-based.

The target in test [2] is T2, Glucocorticoid receptor (Homo sapiens) (UniProt P04150).
T2 sequence (whole entry): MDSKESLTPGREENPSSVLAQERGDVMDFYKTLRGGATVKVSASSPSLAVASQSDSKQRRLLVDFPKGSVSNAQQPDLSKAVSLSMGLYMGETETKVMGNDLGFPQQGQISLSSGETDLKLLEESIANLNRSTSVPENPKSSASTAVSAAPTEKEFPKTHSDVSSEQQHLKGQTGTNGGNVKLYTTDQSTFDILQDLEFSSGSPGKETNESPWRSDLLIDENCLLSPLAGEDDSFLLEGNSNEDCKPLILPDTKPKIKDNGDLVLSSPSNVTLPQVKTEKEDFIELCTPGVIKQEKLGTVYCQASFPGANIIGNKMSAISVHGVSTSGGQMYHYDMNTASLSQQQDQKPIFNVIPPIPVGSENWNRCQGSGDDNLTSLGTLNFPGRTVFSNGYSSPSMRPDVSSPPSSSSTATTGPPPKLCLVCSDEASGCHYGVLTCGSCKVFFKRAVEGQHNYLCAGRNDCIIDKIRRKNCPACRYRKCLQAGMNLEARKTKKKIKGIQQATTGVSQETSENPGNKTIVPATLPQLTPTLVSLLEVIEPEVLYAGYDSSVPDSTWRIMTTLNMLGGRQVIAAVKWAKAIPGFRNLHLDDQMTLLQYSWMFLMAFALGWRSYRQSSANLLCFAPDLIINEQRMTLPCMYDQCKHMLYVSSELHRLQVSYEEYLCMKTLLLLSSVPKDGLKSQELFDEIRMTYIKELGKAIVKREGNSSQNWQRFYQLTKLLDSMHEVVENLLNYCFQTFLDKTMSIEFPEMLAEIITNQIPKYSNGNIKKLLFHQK
The test is described as follows: Agonist activity at human Glucocorticoid receptor expressed in human HeLa cells assessed as DHT-induced response after 40 hrs by luciferase/beta-galactosidase-based reporter gene assay. In kind it is functional, cell-based. Background: A reporter such as luciferase makes a cellular process visible.

For test [3], the target named is T3, Estrogen receptor (Homo sapiens) (UniProt P03372).
T3 sequence (whole entry): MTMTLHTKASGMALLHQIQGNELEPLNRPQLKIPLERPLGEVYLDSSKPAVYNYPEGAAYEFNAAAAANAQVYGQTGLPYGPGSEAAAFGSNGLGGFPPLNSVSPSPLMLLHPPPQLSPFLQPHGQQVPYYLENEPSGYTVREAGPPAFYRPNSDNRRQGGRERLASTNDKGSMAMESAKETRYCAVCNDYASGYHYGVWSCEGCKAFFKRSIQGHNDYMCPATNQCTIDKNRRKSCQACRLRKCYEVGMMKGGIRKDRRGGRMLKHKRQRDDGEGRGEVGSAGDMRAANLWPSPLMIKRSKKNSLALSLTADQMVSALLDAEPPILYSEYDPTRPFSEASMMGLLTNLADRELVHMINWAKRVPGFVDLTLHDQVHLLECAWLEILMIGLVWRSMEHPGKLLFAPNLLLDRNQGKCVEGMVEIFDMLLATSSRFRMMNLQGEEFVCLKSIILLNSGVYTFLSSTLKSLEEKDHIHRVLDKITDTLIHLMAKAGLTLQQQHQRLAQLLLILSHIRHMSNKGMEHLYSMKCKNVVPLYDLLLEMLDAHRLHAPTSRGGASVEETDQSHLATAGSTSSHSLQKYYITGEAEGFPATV
The test is described as follows: Agonist activity at human Estrogen receptor ERalpha expressed in human HeLa cells assessed as DHT-induced response after 40 hrs by luciferase/beta-galactosidase-based reporter gene assay. In kind it is functional, cell-based.

The target in test [4] is T2, Glucocorticoid receptor (Homo sapiens). Nature of the test: Antagonist activity at human GR receptor expressed in human HeLa cells assessed as inhibition of DHT-induced response after 40 hrs by luciferase/beta-galactosidase-based reporter gene assay. In kind it is functional, cell-based.
In test [5] the target is T4, 17-beta-hydroxysteroid dehydrogenase type 3 (Homo sapiens, UniProt P37058).
T4 sequence (P37058 whole entry): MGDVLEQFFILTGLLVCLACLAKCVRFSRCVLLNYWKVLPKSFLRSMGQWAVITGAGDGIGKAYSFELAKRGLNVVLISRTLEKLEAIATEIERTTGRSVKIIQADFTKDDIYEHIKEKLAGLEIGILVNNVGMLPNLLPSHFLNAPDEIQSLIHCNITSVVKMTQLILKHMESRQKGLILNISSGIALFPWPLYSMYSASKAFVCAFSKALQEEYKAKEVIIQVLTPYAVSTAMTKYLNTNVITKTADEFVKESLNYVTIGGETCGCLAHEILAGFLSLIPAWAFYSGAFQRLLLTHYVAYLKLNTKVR
Description: Inhibition of human recombinant 17-beta-HSD3 expressed in human HeLa cells using androstenedione as substrate preincubated for 30 mins prior substrate addition measured after 120 mins by spectrophotometry

Test [6] has as its target T5, Androgen receptor (Homo sapiens) (UniProt P10275).
T5 sequence (whole entry): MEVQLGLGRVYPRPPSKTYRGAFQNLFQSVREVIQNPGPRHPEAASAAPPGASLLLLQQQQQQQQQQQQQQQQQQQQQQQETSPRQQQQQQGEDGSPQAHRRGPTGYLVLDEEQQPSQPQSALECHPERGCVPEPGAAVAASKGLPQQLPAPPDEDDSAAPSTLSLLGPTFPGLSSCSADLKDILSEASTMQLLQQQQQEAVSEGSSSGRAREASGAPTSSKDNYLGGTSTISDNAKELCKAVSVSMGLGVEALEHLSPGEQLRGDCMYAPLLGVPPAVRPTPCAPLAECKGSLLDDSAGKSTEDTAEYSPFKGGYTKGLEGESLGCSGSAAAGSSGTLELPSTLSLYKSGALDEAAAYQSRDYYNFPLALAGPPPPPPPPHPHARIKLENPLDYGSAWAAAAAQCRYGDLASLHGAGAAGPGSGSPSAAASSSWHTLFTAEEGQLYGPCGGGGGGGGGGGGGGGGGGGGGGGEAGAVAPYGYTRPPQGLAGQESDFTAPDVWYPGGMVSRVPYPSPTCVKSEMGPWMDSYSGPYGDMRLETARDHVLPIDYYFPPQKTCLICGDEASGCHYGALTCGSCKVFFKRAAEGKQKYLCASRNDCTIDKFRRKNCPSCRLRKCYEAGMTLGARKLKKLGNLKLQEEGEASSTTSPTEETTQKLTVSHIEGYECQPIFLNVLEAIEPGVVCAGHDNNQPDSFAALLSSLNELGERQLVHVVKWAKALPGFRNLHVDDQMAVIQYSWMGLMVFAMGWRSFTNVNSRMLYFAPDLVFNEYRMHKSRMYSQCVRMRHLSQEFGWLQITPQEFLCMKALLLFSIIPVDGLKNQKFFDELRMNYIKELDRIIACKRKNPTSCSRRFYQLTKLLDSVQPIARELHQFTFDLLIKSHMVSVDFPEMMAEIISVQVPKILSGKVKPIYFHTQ
Nature of the test: Antagonist activity at human androgen receptor expressed in human HeLa cells assessed as inhibition of DHT-induced response after 40 hrs by luciferase/beta-galactosidase-based reporter gene assay. In kind it is functional, cell-based.

Test [7] addresses T6, 17-beta-hydroxysteroid dehydrogenase type 2 (Homo sapiens) (UniProt P37059).
T6 sequence (whole entry): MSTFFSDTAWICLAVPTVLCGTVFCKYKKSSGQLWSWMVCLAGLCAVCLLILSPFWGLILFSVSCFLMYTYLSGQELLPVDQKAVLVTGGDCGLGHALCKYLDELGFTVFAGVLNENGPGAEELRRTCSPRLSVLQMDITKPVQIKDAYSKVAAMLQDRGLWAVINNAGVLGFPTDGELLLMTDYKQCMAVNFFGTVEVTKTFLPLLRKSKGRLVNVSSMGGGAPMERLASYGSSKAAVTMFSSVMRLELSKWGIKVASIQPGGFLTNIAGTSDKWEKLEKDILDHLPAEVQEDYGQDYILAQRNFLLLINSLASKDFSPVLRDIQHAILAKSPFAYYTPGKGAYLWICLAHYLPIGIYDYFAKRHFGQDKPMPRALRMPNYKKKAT
Nature of the test: Inhibition of human recombinant 17-beta-HSD2 expressed in human HeLa cells using estradiol as substrate preincubated for 30 mins prior substrate addition measured after 120 mins by spectrophotometry. Type of test: cell-based.

The target in test [8] is T3, Estrogen receptor (Homo sapiens). The test is described as follows: Antagonist activity at human ERalpha receptor expressed in human HeLa cells assessed as inhibition of DHT-induced response after 40 hrs by luciferase/beta-galactosidase-based reporter gene assay. Type of test: functional, cell-based.
Test [9] concerns the target T5, Androgen receptor (Homo sapiens). The test is described as follows: Agonist activity at human androgen receptor expressed in human HeLa cells assessed as DHT-induced response after 40 hrs by luciferase/beta-galactosidase-based reporter gene assay. In kind it is functional, cell-based.

Active and inactive are the calls of the source. How the calls were made is not given here.

Nine compounds from ChEMBL document CHEMBL2016457, “Discovery of potent and orally bioavailable 17β-hydroxysteroid dehydrogenase type 3 inhibitors” (Bioorg Med Chem, 2012) can be followed below.

The term IC50 denotes the concentration that inhibits the measured activity by half. Higher therefore signals lower potency.

For the compound `CN(C)c1ccc(N2C(=O)O/C(=C\c3ccc(O)c(Br)c3)C2=O)cn1`, the inhibition entry in [1] and in test [7] was “inactive” each time. Besides, the result in test [2], in test [3], in test [4], in [6], in test [8] and in test [9] was inactive. In test [5], this compound registered a concentration for half-maximal inhibition (IC50) of 4 nM.
As to `COc1ccc(N2C(=O)/C(=C/c3ccc(O)c(C)c3)OC2=S)cc1`, the inhibition result in test [1] and in [7] was “inactive” each time. In addition, the result in test [2], in [3], in test [4], in test [6], in test [8] and in [9] was inactive. Moreover, inhibition in test [5] was half-maximal at 20 nM (IC50).
`O=C1/C(=C/c2ccc(O)c(Br)c2)OC(=S)N1c1ccc(C(F)(F)F)cc1`: the inhibition entry in [1] and in test [7] was “inactive” throughout. Further, the outcome in [2], in test [3], in [4], in test [6], in test [8] and in test [9] was inactive. The same compound yielded an IC50 in [5] of 3 nM.
With `CSc1ccc(N2C(=O)O/C(=C\c3ccc(O)c(Br)c3)C2=O)cc1`, the inhibition result in test [1] and in [7] was “inactive” throughout. Besides, the outcome in [2], in test [3], in [4], in test [6], in [8] and in test [9] was inactive. Also, half-maximal inhibition in test [5] (IC50) was put at 90 nM.
On to `COc1ccc(CN2C(=O)/C(=C/c3ccc(O)c(Br)c3)SC2=S)cc1`, for which the inhibition entry in test [1] and in [7] was “inactive” each time. The result in test [2], in [3], in test [4], in [6], in test [8] and in test [9] was inactive. This compound came in with an IC50 in test [5] of 90 nM.
For `CC(=O)Nc1ccc(N2C(=O)O/C(=C\c3ccc(O)c(Br)c3)C2=O)cc1`, the inhibition entry in [1] and in test [7] was “inactive” each time. Also, the result in test [2], in [3], in test [4], in test [6], in test [8] and in test [9] was inactive. In addition, in test [5], half-maximal inhibition (IC50) required 57 nM.
As for `C=CCN1C(=O)/C(=C/c2ccc(O)c(Br)c2)SC1=S`, the inhibition entry in test [1] and in test [7] was “inactive” each time. The outcome in test [2], in test [3], in test [4], in [6], in [8] and in test [9] was inactive. Further, the IC50 in test [5] worked out at 120 nM.
With `COc1ccc(N2C(=O)O/C(=C\c3ccc(O)c(Br)c3)C2=O)cc1`, the inhibition entry in [1] and in test [7] was “inactive” throughout. The result in [2], in test [3], in test [4], in test [6], in test [8] and in [9] was inactive.
On to `COc1ccc(N2C(=O)/C(=C/c3ccc(O)c(Br)c3)SC2=S)cc1`, for which the inhibition result in [1] and in [7] was “inactive” throughout. Further, the outcome in test [2], in test [3], in [4], in [6], in test [8] and in [9] was inactive.
